Test results reported in ChEMBL document CHEMBL1125405, “Synthesis of alkoxy-substituted diaryl compounds and correlation of ring separation with inhibition of tubulin polymerization: differential enhancement of inhibitory effects under suboptimal polymerization reaction conditions” (J Med Chem, 1992).
pIC50: −log10 of the molar value.

Assays:
Tubulin [1] = target: T1, Tubulin (Bos taurus, UniProt Q6B856+Q862L2+Q862F3); assay: Inhibition of glutamate-dependent tubulin polymerization at 30 degrees C(0.25 mM MgCl2); format: functional
L1210 [2] = assay: Compound was tested for the inhibition of murine L1210 leukemia cells growth by 50%; format: functional, cell-based; details: Mus musculus
HL-60 = assay: Cytotoxicity of compound against HL-60 human leukemia cells; format: functional, cell-based
Tubulin [3] = target: T1, Tubulin; assay: Concentration required to inhibit the extent of glutamate-dependent tubulin polymerization by 50% at 37 degrees C(1.0 mM MgCl2); format: functional
L1210 [4] = assay: Compound was tested for the inhibition of L1210 leukemia cells growth […]; format: functional, cell-based; details: Mus musculus

| SMILES | IC50 (Tubulin [1]) [µM] | IC50 (Tubulin [3]) [µM] | also measured |
| --- | --- | --- | --- |
| CCOc1cc2c(cc1Cc1ccc(OC)cc1)OCO2 | 2 |  |  |
| CCOc1cc2c(cc1/C=C\c1ccc(OC)cc1)OCO2 | > 40 |  |  |
| CCOc1cc2c(cc1C/C=C/c1ccc(OC)cc1)OCO2 | 1.9 |  |  |
| CCOc1cc2c(cc1CCCc1ccc(OC)cc1)OCO2 | 2.7 |  |  |
| CCOc1cc2c(cc1C(C)c1ccc(OC)cc1)OCO2 (stereo not given) | 1.8 |  |  |
| COc1ccc(/C=C/Cc2cc3c(cc2OC)OCO3)cc1 | 3.9 |  |  |
| CCOc1cc2c(cc1CCc1ccc(OC)cc1)OCO2 | 3.8 |  |  |
| COc1ccc(C(C)c2cc3c(cc2OC)OCO3)cc1 (stereo not given) | 2.5 |  |  |

Second part, led by results:

| IC50 (Tubulin [1]) [µM] | IC50 (Tubulin [3]) [µM] | SMILES | also measured |
| --- | --- | --- | --- |
| 5.4 |  | COc1ccc(Cc2cc3c(cc2OC)OCO3)cc1 |  |
| 8.8 |  | COc1ccc(CCc2cc3c(cc2OC)OCO3)cc1 |  |
| 2.3 | 7.7 | COc1ccc(Cc2cc(OC)c(OC)c(OC)c2)cc1O | pIC50 (L1210 [2]): 6.70; pIC50 (HL-60): 7.00 |
| 3.8 |  | COc1ccc(CCCc2cc3c(cc2OC)OCO3)cc1 |  |
| 1.6 | 3.5 | COc1ccc(CCc2cc(OC)c(OC)c(OC)c2)cc1O | pIC50 (HL-60): 7.30; pIC50 (L1210 [4]): 7.15 |
| 3 | 11 | COc1ccc(CCCc2cc(OC)c(OC)c(OC)c2)cc1O | pIC50 (L1210 [2]): 6.40; pIC50 (HL-60): 6.52 |
| 1.2 | 2.6 | COc1c(-c2ccc(OC)c(=O)cc2)ccc(C=O)c1C=O |  |
| > 40 | > 40 | COc1ccc(-c2cc(OC)c(OC)c(OC)c2)cc1O |  |
| 4.4 | 30 | COc1ccc(CCCCc2cc(OC)c(OC)c(OC)c2)cc1O |  |
| 7.5 |  | COc1ccc(CCCCc2cc3c(cc2OC)OCO3)cc1 |  |
